Reference: patent publication US20220151230A1, “SPECIFICALLY SUBSTITUTED 3-(2-HALOGEN-6-ALKYL-4-PROPINYLPHENYL)-3-PYRROLIN-2-ONES AND TO THE USE THEREOF AS HERBICIDES” (Bayer Aktiengesellschaft, priority 2019, published 2022)

Legend:
AVEFA [1] = assay: Post-emergence herbicidal effect against AVEFA; type: in vivo, Avena fatua; conditions: one-leaf stage, 80 g/ha, assessed visually after about 3 weeks vs untreated controls, 100% = plants have died
Description: (§1) Seeds of monocotyledonous and dicotyledonous weed and crop plants are laid out in sandy loam soil in wood-fiber pots, covered with soil and cultivated in a greenhouse under good growth conditions. 2 to 3 weeks after sowing, the test plants are treated at the one-leaf stage. The compounds of the invention, formulated in the form of wettable powders (WP) or as emulsion concentrates (EC), are then sprayed onto the green parts of the plants as aqueous suspension or emulsion at a water application rate equating to 600 to 800 l/ha with addition of 0.2% wetting agent. After the test plants have been left to stand in the greenhouse under optimal growth conditions for about 3 weeks, the action of the preparations is assessed visually in comparison to untreated controls (herbicidal action in percent (%): 100% activity=the plants have died, 0% activity=like control plants).

SETVI [2] = assay: Post-emergence herbicidal effect against SETVI; type: in vivo, Setaria viridis; conditions: one-leaf stage, 80 g/ha, assessed visually after about 3 weeks vs untreated controls, 100% = plants have died
Description: as §1

ECHCG [3] = assay: Post-emergence herbicidal effect against ECHCG; type: in vivo, Echinochloa crus-galli; conditions: one-leaf stage, 80 g/ha, assessed visually after about 3 weeks vs untreated controls, 100% = plants have died
Description: as §1

LOLRI [4] = assay: Post-emergence herbicidal effect against LOLRI; type: in vivo, Lolium rigidum; conditions: one-leaf stage, 80 g/ha, assessed visually after about 3 weeks vs untreated controls, 100% = plants have died
Description: as §1

DIGSA [5] = assay: Post-emergence herbicidal effect against DIGSA; type: in vivo, Digitaria sanguinalis; conditions: one-leaf stage, 80 g/ha, assessed visually after about 3 weeks vs untreated controls, 100% = plants have died
Description: as §1

HORMU = assay: Post-emergence herbicidal effect against HORMU; type: in vivo, Hordeum murinum; conditions: one-leaf stage, 80 g/ha, assessed visually after about 3 weeks vs untreated controls, 100% = plants have died
Description: as §1

ALOMY [6] = assay: Post-emergence herbicidal effect against ALOMY; type: in vivo, Alopecurus myosuroides; conditions: one-leaf stage, 80 g/ha, assessed visually after about 3 weeks vs untreated controls, 100% = plants have died
Description: as §1

DIGSA [7] = assay: Pre-emergence herbicidal effect against DIGSA; type: in vivo, Digitaria sanguinalis; conditions: 320 g/ha, scored visually after 3 weeks vs untreated controls, 100% = plants have died
Description: (§2) Seeds of monocotyledonous and dicotyledonous weed plants and crop plants are laid out in sandy loam soil in wood-fiber pots and covered with soil. The compounds of the invention, formulated in the form of wettable powders (WP) or as emulsion concentrates (EC), are then applied to the surface of the covering soil as aqueous suspension or emulsion at a water application rate equating to 600 to 800 L/ha with addition of 0.2% wetting agent.
(§3) After the treatment, the pots are placed in a greenhouse and kept under good growth conditions for the trial plants. The damage to the test plants is scored visually after a test period of 3 weeks by comparison with untreated controls (herbicidal activity in percent (%): 100% activity=the plants have died, 0% activity=like control plants).

VIOTR = assay: Pre-emergence herbicidal effect against VIOTR; type: in vivo, Viola tricolor; conditions: 320 g/ha, scored visually after 3 weeks vs untreated controls, 100% = plants have died
Description: as §2, §3

SETVI [8] = assay: Pre-emergence herbicidal effect against SETVI; type: in vivo, Setaria viridis; conditions: 320 g/ha, scored visually after 3 weeks vs untreated controls, 100% = plants have died
Description: as §2, §3

AVEFA [9] = assay: Pre-emergence herbicidal effect against AVEFA; type: in vivo, Avena fatua; conditions: 320 g/ha, scored visually after 3 weeks vs untreated controls, 100% = plants have died
Description: as §2, §3

LOLRI [10] = assay: Pre-emergence herbicidal effect against LOLRI; type: in vivo, Lolium rigidum; conditions: 320 g/ha, scored visually after 3 weeks vs untreated controls, 100% = plants have died
Description: as §2, §3

ALOMY [11] = assay: Pre-emergence herbicidal effect against ALOMY; type: in vivo, Alopecurus myosuroides; conditions: 320 g/ha, scored visually after 3 weeks vs untreated controls, 100% = plants have died
Description: as §2, §3

ECHCG [12] = assay: Pre-emergence herbicidal effect against ECHCG; type: in vivo, Echinochloa crus-galli; conditions: 320 g/ha, scored visually after 3 weeks vs untreated controls, 100% = plants have died
Description: as §2, §3

Compound	Post-emergence action [%] against AVEFA (AVEFA [1])	Post-emergence action [%] against SETVI (SETVI [2])	Post-emergence action [%] against ECHCG (ECHCG [3])	Post-emergence action [%] against LOLRI (LOLRI [4])	Post-emergence action [%] against DIGSA (DIGSA [5])	Post-emergence action [%] against HORMU (HORMU)	Post-emergence action [%] against ALOMY (ALOMY [6])	Pre-emergence action [%] against DIGSA (DIGSA [7])	Pre-emergence action [%] against VIOTR (VIOTR)	Pre-emergence action [%] against SETVI (SETVI [8])	Pre-emergence action [%] against AVEFA (AVEFA [9])	Pre-emergence action [%] against LOLRI (LOLRI [10])	Pre-emergence action [%] against ALOMY (ALOMY [11])	Pre-emergence action [%] against ECHCG (ECHCG [12])
CC#Cc1cc(C)c(C2=C(O)C3(CCCC(OCCC)C3)NC2=O)c(Cl)c1 (centres unmarked) [Example D1, 3-[2-Chloro-6-methyl-4-(prop-1-yn-1-yl)phenyl]-4-hydroxy-7-propoxy-1-azaspiro[4.5]dec-3-en-2-one]	100%	100%	100%	100%	100%	100%	100%	–	–	–	–	–	–	–
CC#Cc1cc(C)c(C2=C(O)C3(CCC(CC)CC3)NC2=O)c(Cl)c1 (centres unmarked) [Example E1]	100%	100%	100%	100%	100%	100%	100%	–	–	–	–	–	–	–
C=CCOC1CCC2(CC1)NC(=O)C(c1c(C)cc(C#CC)cc1Cl)=C2O (centres unmarked) [Example E7]	80%	100%	100%	100%	100%	90%	100%	–	–	–	–	–	–	–
CC#Cc1cc(C)c(C2=C(O)C3(CCC(OCC)CC3)NC2=O)c(Cl)c1 (centres unmarked) [Example E10]	100%	100%	100%	100%	100%	100%	100%	–	–	–	–	–	–	–
CC#Cc1cc(C)c(C2=C(O)C3(CCC(OC(C)C)CC3)NC2=O)c(Cl)c1 (centres unmarked) [Example E13]	100%	100%	100%	100%	100%	100%	100%	–	–	–	–	–	–	–
CC#Cc1cc(C)c(C2=C(O)C3(CCC(OCCOC)CC3)NC2=O)c(Cl)c1 (centres unmarked) [Example E16]	100%	100%	100%	100%	100%	–	100%	100%	100%	100%	100%	100%	100%	100%
CC#Cc1cc(C)c(C2=C(O)C3(CCC(OC)CC3)NC2=O)c(Cl)c1 (centres unmarked) [Example E19]	100%	100%	100%	100%	100%	100%	100%	–	–	–	–	–	–	–
CC#Cc1cc(C)c(C2=C(O)C3(CCC(OC)CC3)NC2=O)c(Br)c1 (centres unmarked) [Example E21]	90%	100%	100%	100%	100%	–	100%	100%	100%	100%	100%	100%	100%	100%
CC#Cc1cc(C)c(C2=C(OC(=O)OCC)C3(CCC(CC)CC3)NC2=O)c(Cl)c1 (centres unmarked) [Example P3]	–	100%	100%	100%	100%	100%	100%	–	–	–	–	–	–	–
CC#Cc1cc(C)c(C2=C(OC(=O)OC)C3(CCC(OC)CC3)NC2=O)c(Cl)c1 (centres unmarked) [Example P10]	100%	100%	100%	100%	100%	100%	100%	–	–	–	–	–	–	–
CC#Cc1cc(C)c(C2=C(OC(=O)OCC)C3(CCC(OC)CC3)NC2=O)c(Cl)c1 (centres unmarked) [Example P11]	100%	100%	100%	100%	100%	90%	100%	–	–	–	–	–	–	–
CC#Cc1cc(C)c(C2=C(OC(=O)C(C)C)C3(CCC(OC)CC3)NC2=O)c(Cl)c1 (centres unmarked) [Example P12]	100%	100%	100%	100%	100%	100%	100%	–	–	–	–	–	–	–
CC#Cc1cc(C)c(C2=C(OC(=O)OCC)C3(CCC(OC)CC3)NC2=O)c(Br)c1 (centres unmarked) [Example P13]	100%	100%	100%	100%	100%	–	100%	100%	100%	100%	100%	100%	100%	100%
CC#Cc1cc(C)c(C2=C(OC(=O)OCC)C3(CCC(OCCOC)CC3)NC2=O)c(Cl)c1 (centres unmarked) [Example P17]	100%	100%	100%	100%	100%	–	100%	100%	100%	100%	100%	100%	100%	100%
CC#Cc1cc(Cl)c(C2=C(OC(=O)OCC)C3(CCC(OC)CC3)NC2=O)c(CC)c1 (centres unmarked) [Example P21]	80%	100%	100%	80%	100%	–	90%	100%	90%	100%	100%	100%	100%	100%
